“Also recorded” adds a separate entry of the source.
Legend:
EcoRI [1] = target: T1, EcoRI (Escherichia coli, UniProt P00642); experiment: Peptide inhibitor assay (PIA): EcoRI digestion of pCRII-TOPO-OR23 plasmid, fluorescence intensity of the excised OR23 band on agarose gel; format: biochemical; settings: for inhibitory effect compared with the original peptide (in words) / level of inhibitory effect on EcoRI (in words) / relative fluorescence intensity of excised OR23 fragment / significance of inhibition of EcoRI activity versus no peptide: 3 h; for inhibitory effect compared with the original peptide (in words): EcoRI:peptide 1:500, randomized peptides by Student's t-test versus each endogenous BP; for inhibitory effect compared with the original peptide (in words) / level of inhibitory effect on EcoRI (in words) / significance of inhibition of EcoRI activity versus no peptide / inhibitory effect, fluorescence intensity versus incubation time (in words) / concentration dependence of the inhibitory effect: n = 3; for level of inhibitory effect on EcoRI (in words): EcoRI:peptide 1:500, relative fluorescence intensity; for relative fluorescence intensity of excised OR23 fragment: relative to no peptide, EcoRI:peptide 1:500 molar ratio, 37 °C, 0.015 mM Mg2+, mean of n = 3; for significance of inhibition of EcoRI activity versus no peptide: EcoRI:peptide 1:500, Dunnett's test versus no peptide; for inhibitory effect, fluorescence intensity versus incubation time (in words): time course until 5 h, EcoRI:peptide 1:500, compared with no peptide; for concentration dependence of the inhibitory effect: ×5 to ×500 molar equivalence to EcoRI, fixed time point 3 h
T1 construct: The first M is removed after translation in this protein; purchased New England Biolabs
T1 sequence (P00642 2-277): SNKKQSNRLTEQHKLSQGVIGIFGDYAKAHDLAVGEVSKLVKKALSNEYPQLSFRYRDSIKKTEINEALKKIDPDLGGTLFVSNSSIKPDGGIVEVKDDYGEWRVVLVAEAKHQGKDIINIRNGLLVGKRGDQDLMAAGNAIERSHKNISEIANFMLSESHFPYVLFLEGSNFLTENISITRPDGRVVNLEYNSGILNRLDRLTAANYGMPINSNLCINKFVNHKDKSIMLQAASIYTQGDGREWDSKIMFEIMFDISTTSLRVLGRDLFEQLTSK
Description: Peptide synthesis was performed by GenScript Japan (Tokyo, Japan). All peptides were confirmed to be more than 75% pure via high-performance liquid chromatography (HPLC) and to have theoretical molecular weights via mass spectrometry (MS). The peptides were dissolved in DMSO (dimethyl sulfoxide) and were prepared at 5.59 × 10^−9 mol/μL (5.59 mM). When 1.0 μL of this peptide mixture was mixed in a tube for the inhibition of EcoRI catalytic activity, the molar ratio of EcoRI to peptide was 1:500. This concentration in molar equivalence was used throughout this study unless otherwise noted.
Purified and concentrated EcoRI (20,000 U/mL, approximately 338 μg/mL, 1.12 × 10^−[…]) was obtained from New England Biolabs (Ipswich, MA, USA). To quantify and visualize the inhibitory effects of the peptides, the enzymatic reaction conditions were set so that at least three hours of incubation were required to completely digest the substrate plasmid DNA with EcoRI. To do so, we used a low Mg^2+ concentration (0.015 mM) in the reaction mixture in contrast to the optimum concentration of Mg^2+ for EcoRI (10 mM).
(§1) All master solutions and samples were prepared on ice. A single reaction tube contained the following common ingredients: autoclaved DNase-free RNase-free deionized H2O (12.5 μL) (Nippon Gene), 10× NE Buffer Mg^2+-free (2.0 μL), pCRII-TOPO-OR23 plasmid DNA (2.0 μL of 40 ng/μL solution), MgCl2 (1.5 μL of 0.20 mM solution), and EcoRI (1.0 μL). A master solution containing these ingredients without DMSO or a peptide was first prepared for the number of sample tubes. The master solution was aliquoted into 1.5 mL spin tubes (19.0 μL per tube). Then, 1.0 μL of DMSO or a peptide sample was added, and the mixture was incubated at 37 °C. A negative control with DMSO but without a peptide (“no peptide” control) was run in every assay. When the digestion efficiency was compared, another negative control with autoclaved DNase-free RNase-free H2O without EcoRI was prepared. After the reaction, the samples were quickly cooled on ice for ten minutes and then stored at −80 °C until agarose gel electrophoresis. The above protocol was conducted for all peptides (including BP19.5, BP19.5N, and BP19.5C) used in the present study unless otherwise noted.
To quantify EcoRI activity after incubation of a reaction mixture, digested pCRII-TOPO-OR23 plasmid DNA was examined via agarose gel electrophoresis. We first prepared a 25 mL solution of 1.0% agarose (Nippon Gene) in TAE (Tris-acetate-EDTA) buffer (Promega, Madison, WI, USA) to produce an agarose gel. An ethidium bromide solution (0.5 μL of 10 mg/mL) (Promega) was added before gelation. After incubation with EcoRI, the fluorescence intensity of the band of the excised OR23 fragment was measured via an ImageQuant LAS4000 (GE Healthcare Japan, Tokyo, Japan) with the following conditions: “Exposure Type”: Precision; “Exposure Time”: Manual 1/8 sec; “Sensitivity/Resolution”: Standard; and “Fluorescent Method”: Epi illumination; EtBr; UV (Trans UV) light; 6-5DF50 Filter; and F2.8 Iris.
For statistical analyses, Student’s t-test (unpaired and bi-sided), Dunnett’s test, and Pearson correlation analysis were performed via Microsoft Excel (Office 365) and JSTAT (Yokohama, Japan). The Dunnett’s test was performed for each experimental group that was examined simultaneously in the laboratory, in comparison to the “no peptide” control group that was examined simultaneously. The repeated measure mode of the Dunnett’s test was used on the assumption that there was no interaction between samples.

EcoRI [2] = target: T1, EcoRI; experiment: Nonspecific nuclease activity of EcoRI reaction mixture with peptide (plasmid DNA degradation); format: biochemical; settings: EcoRI plus peptide 1:500, 3 h; n = 3
Description: A recombinant plasmid, pCRII-TOPO (Invitrogen, Waltham, MA, USA), containing a PCR fragment of the full-length cDNA (978 bp) of the mouse odorant receptor OR23 [82, 83, 84, 85, 86] at the EcoRI cloning site (GAATTC) was used as a DNA substrate for EcoRI. […] This pCRII-TOPO-OR23 plasmid was prepared from TOP10F’ Escherichia coli (Invitrogen) using ATP Plasmid Mini Kit (ATP Biotech, Taipei, ROC). The plasmid solution was prepared at 40 ng/μL by adding autoclaved DNase-free RNase-free deionized H2O (Nippon Gene, Tokyo, Japan). The DNA concentrations were measured with a Qubit fluorometer (Invitrogen).
as §1
This reaction mixture containing EcoRI and BP19.5 appeared to degrade the plasmid DNA entirely. […] The DNA concentration at 3 h was 3.297 ± 0.006 ng/μL without any peptide in the reaction mixture and 0.332 ± 0.003 ng/μL with BP19.5, indicating a statistically significant difference (n = 3; unpaired bi-sided Student’s t-test; p = 1.6 × 10^−11). […] Therefore, BP19.5 and its derivatives are likely to cause EcoRI to become a nonspecific nuclease. In other words, BP19.5 was likely a specificity/activity modifier of EcoRI instead of an inhibitor.

For AGRKQEVHAVWVEL [BP10R2], the “inhibitory effect compared with the original peptide (in words)” value (EcoRI [1]) was “as inhibitory as the original peptides”.
In the case of EWRVVL [BP10N], the “level of inhibitory effect on EcoRI (in words)” value (shortened to “level of inhibitory effect”) (EcoRI [1]) is reported as “noninhibitory”.
For YVLFLE [BP15C], the “level of inhibitory effect” value (EcoRI [1]) was “most effective”, the “inhibitory effect compared with the original peptide (in words)” value (EcoRI [1]) was “more inhibitory than the original BP15” and the “relative fluorescence intensity of excised OR23 fragment” value (shortened to “relative fluorescence intensity”) (EcoRI [1]) was “less than 0.3”.
In the case of “NLCINK [BP19.5C, deletion peptide from BP19.5]”, the “plasmid DNA degradation / nonspecific nuclease induction (agarose gel electrophoresis, in words)” value (EcoRI [2]) is reported as “no DNA was detected; also recorded: induced such nuclease activity”.
With EIANFM [BP14C] the “inhibitory effect compared with the original peptide (in words)” value (EcoRI [1]) was “as inhibitory as the original BP14”.
With LSQGVIGIFGDY [BP2.5] the “level of inhibitory effect” value (EcoRI [1]) was “notable” and the “relative fluorescence intensity” value (EcoRI [1]) was “less than 0.3”.
For IKKTEINEALKKID [BP6], the “significance of inhibition of EcoRI activity versus no peptide” value (EcoRI [1]) was “significantly inhibited EcoRI activity” and the “level of inhibitory effect” value (EcoRI [1]) was “especially notable”.
SSIKPDGGIVE [BP8.5] was tested, and the “level of inhibitory effect” value (EcoRI [1]) was “not very inhibitory”.
For EALDIAMGRNSA [BP13R1], the “inhibitory effect compared with the original peptide (in words)” value (EcoRI [1]) was “significantly more inhibitory”.
In the case of RNGLLVGKRGDQD [BP12], the “significance of inhibition of EcoRI activity versus no peptide” value (EcoRI [1]) is reported as “significantly inhibited EcoRI activity”.
In the case of AVGEVSKLVKKALS [BP4], the “significance of inhibition of EcoRI activity versus no peptide” value (EcoRI [1]) is reported as “significantly inhibitory”.
For IDPDLG [BP7N], the “level of inhibitory effect” value (EcoRI [1]) was “noninhibitory”.
With AAGNAI [BP13M] the “level of inhibitory effect” value (EcoRI [1]) was “noninhibitory”.
KRGDQDLMAAG [BP12.5] was tested, and the “level of inhibitory effect” value (EcoRI [1]) was “not very inhibitory”.
With LAMRGASIADEN [BP13R2] the “inhibitory effect compared with the original peptide (in words)” value (EcoRI [1]) was “significantly less inhibitory”.
KPDGGIVEVKDDYG [BP9] was tested, and the “level of inhibitory effect” value (EcoRI [1]) was “not very inhibitory”.
In the case of TRPDGRVVNLEY [BP17], the “level of inhibitory effect” value (EcoRI [1]) is reported as “not very inhibitory”.
SHKNISEIANFM [BP14] was tested, and the “significance of inhibition of EcoRI activity versus no peptide” value (EcoRI [1]) was “significantly inhibited EcoRI activity”, the “level of inhibitory effect” value (EcoRI [1]) was “especially notable; also recorded: moderate inhibitory effect” and the “inhibitory effect, fluorescence intensity versus incubation time (in words)” value (EcoRI [1]) was “relatively high inhibitory effects”. The “concentration dependence of the inhibitory effect” value (EcoRI [1]) was “concentration dependent”.
In the case of “PINSNL [BP19.5N, deletion peptide from BP19.5]”, the “plasmid DNA degradation / nonspecific nuclease induction (agarose gel electrophoresis, in words)” value (EcoRI [2]) is reported as “no DNA was detected; also recorded: induced such nuclease activity”.
With AANYGMPINSNL [BP19] the “plasmid DNA degradation / nonspecific nuclease induction (agarose gel electrophoresis, in words)” value (EcoRI [2]) was “did not have such an induction ability” and the “level of inhibitory effect” value (EcoRI [1]) was “did not show high inhibition”.
LDRLTAANYGM [BP18.5] was tested, and the “level of inhibitory effect” value (EcoRI [1]) was “noninhibitory”.
With EGSNFLTENISI [BP16] the “level of inhibitory effect” value (EcoRI [1]) was “highly inhibitory; also recorded: most effective” and the “relative fluorescence intensity” value (EcoRI [1]) was “less than 0.3”.
NSGILNRLDRLTA [BP18] was tested, and the “level of inhibitory effect” value (EcoRI [1]) was “especially notable; also recorded: most effective” and the “relative fluorescence intensity” value (EcoRI [1]) was “less than 0.3”.
GREWDSKIMFEIMF [BP22] was tested, and the “significance of inhibition of EcoRI activity versus no peptide” value (EcoRI [1]) was “significantly inhibited EcoRI activity”, the “level of inhibitory effect” value (EcoRI [1]) was “especially notable” and the “inhibitory effect, fluorescence intensity versus incubation time (in words)” value (EcoRI [1]) was “relatively high inhibitory effects”. For the same substance, the “concentration dependence of the inhibitory effect” value (EcoRI [1]) was “concentration dependent”.

Source: publication PMC11755562, “Peptide Inhibitor Assay for Allocating Functionally Important Accessible Sites Throughout a Protein Chain: Restriction Endonuclease EcoRI as a Model Protein System” (BioTech, 2024)
